Source: ChEMBL document CHEMBL5053494, “Novel halogenated arylvinyl-1,2,4 trioxanes as potent antiplasmodial as well as anticancer agents: Synthesis, bioevaluation, structure-activity relationship and in-silico studies” (Eur J Med Chem, 2021)
The source made the active and inactive calls. No cut-off for these calls is given here.

How the values were obtained:
[1] = Selectivity ratio of IC50 for anticancer activity against human L02 cells to IC50 for anticancer activity against human HepG2 cells; assay type: toxicity, cell-based; conditions: L02 cells versus HepG2 cells, read-out: Ratio IC50
Plasmodium falciparum [2] = test: Antiplasmodial activity against chloroquine-resistant Plasmodium falciparum INDO assessed as growth inhibition by SYBER green 1 dye based fluorescence assay; assay type: functional, organism-based
Plasmodium falciparum [3] = test: Antiplasmodial activity against trophozoite stage chloroquine-resistant Plasmodium falciparum INDO assessed as parasite killing for 0 to 4 hrs by stage specific inhibition assay relative to control; assay type: functional; parameters: scale not given: the % may be the effect or the level left; conditions: time 0-4 hrs
Plasmodium falciparum [4] = test: Antiplasmodial activity against ring stage chloroquine-resistant Plasmodium falciparum INDO assessed as percentage survival at 70 nM for 6 hrs by ring stage survival assay; assay type: functional, organism-based
Plasmodium falciparum [5] = test: Antiplasmodial activity against ring stage chloroquine-resistant Plasmodium falciparum Cam 3.1 R539 assessed as percentage survival at 70 nM for 6 hrs by ring stage survival assay; assay type: functional
HepG2 = test: Anticancer activity against human HepG2 cells assessed as cell growth inhibition measured for 72 hrs by MTT assay; assay type: functional, cell-based; conditions: HepG2, 72 h
BEAS-2B [6] = test: Anticancer activity against human BEAS-2B cells assessed as cell growth inhibition measured for 72 hrs by MTT assay; assay type: functional, cell-based
Plasmodium falciparum [7] = test: Antiplasmodial activity against trophozoite stage chloroquine-resistant Plasmodium falciparum INDO assessed as parasite killing for 4 to 8 hrs by stage specific inhibition assay relative to control; assay type: functional, organism-based; conditions: time 4-8 hrs
Plasmodium berghei [8] = test: Antimalarial activity against Plasmodium berghei ANKA infected in Balb/c mouse assessed as suppression of parasitemia at 50 mg/kg, po administered for 4 days by microscopic analysis; assay type: functional; conditions: time 4 day
Plasmodium falciparum [9] = test: Antiplasmodial activity against ring stage chloroquine-resistant Plasmodium falciparum INDO assessed as ring stage parasite killing for 0 to 6 hrs by stage specific inhibition assay relative to control; assay type: functional; parameters: scale not given: the % may be the effect or the level left; conditions: time 0-6 hrs
A549 [10] = test: Anticancer activity against human A549 cells assessed as cell growth inhibition measured for 72 hrs by MTT assay; assay type: functional, cell-based; conditions: A549, 72 h
Plasmodium falciparum [11] = test: Resistance index, ratio of IC50 for antiplasmodial activity against artemisinin-resistant Plasmodium falciparum Cam 3.1 R539 to IC50 for antiplasmodial activity against chloroquine-resistant Plasmodium falciparum INDO; assay type: functional
L02 = test: Anticancer activity against human L02 cells assessed as cell growth inhibition measured for 72 hrs by MTT assay; assay type: functional, cell-based; conditions: L02, 72 h
[12] = Cytotoxicity against human HEK293 cells assessed as cell viability measured for 24 hrs by MTT assay; assay type: cell-based
[13] = Selectivity ratio of IC50 for anticancer activity against human BEAS-2B cells to IC50 for anticancer activity against human A549 cells; assay type: toxicity, cell-based; conditions: BEAS-2B cells versus A549 cells, read-out: Ratio IC50
[14] = Selectivity index, ratio of CC50 for human HEK293 cells to IC50 for antiplasmodial activity against chloroquine-resistant Plasmodium falciparum INDO; assay type: toxicity; conditions: HEK293 cells versus Plasmodium falciparum INDO
Plasmodium falciparum [15] = test: Antiplasmodial activity against ring stage chloroquine-resistant Plasmodium falciparum INDO assessed as ring stage parasite killing for 12 hrs by stage specific inhibition assay relative to control; assay type: functional; parameters: scale not given: the % may be the effect or the level left
Plasmodium falciparum [16] = test: Antiplasmodial activity against ring stage chloroquine-resistant Plasmodium falciparum Cam 3.1 R539 assessed as percentage survival at 700 nM for 6 hrs by ring stage survival assay relative to control; assay type: functional
Plasmodium falciparum [17] = test: Antiplasmodial activity against ring stage chloroquine resistant Plasmodium falciparum INDO assessed as percentage survival at 700 nM for 6 hrs by ring stage survival assay; assay type: functional
Plasmodium berghei [18] = test: Antimalarial activity against Plasmodium berghei ANKA infected in Balb/c mouse assessed as suppression of parasitemia at 50 mg/kg, ip administered for 4 days by microscopic analysis; assay type: functional; conditions: time 4 day
Plasmodium falciparum [19] = test: Antiplasmodial activity against artemisinin-resistant Plasmodium falciparum Cam 3.1 R539 assessed as growth inhibition by SYBER green 1 dye based fluorescence assay; assay type: functional, organism-based
Plasmodium falciparum [20] = test: Antiplasmodial activity against schizont stage chloroquine-resistant Plasmodium falciparum INDO assessed as parasite killing for 0 to 3 hrs by stage specific inhibition assay relative to control; assay type: functional, organism-based; conditions: time 0-3 hrs
A549 [21] = test: Induction of apoptosis in human A549 cells assessed as early apoptotic cells measured after 24 hrs by annexinV-FITC/propidium iodide staining based flow cytometry; assay type: functional
BEAS-2B [22] = test: Induction of apoptosis in human BEAS-2B cells assessed as late apoptotic cells measured after 24 hrs by annexinV-FITC/propidium iodide staining based flow cytometry; assay type: functional
Plasmodium falciparum [23] = test: Antiplasmodial activity against schizont stage chloroquine-resistant Plasmodium falciparum INDO assessed as parasite killing for 6 to 9 hrs by stage specific inhibition assay relative to control; assay type: functional; parameters: scale not given: the % may be the effect or the level left; conditions: time 6-9 hrs
Plasmodium falciparum [24] = test: Antiplasmodial activity against schizont stage chloroquine-resistant Plasmodium falciparum INDO assessed as parasite killing for 9 to 12 hrs by stage specific inhibition assay relative to contol; assay type: functional; parameters: scale not given: the % may be the effect or the level left; conditions: time 9-12 hrs
Plasmodium falciparum [25] = test: Antiplasmodial activity against schizont stage chloroquine-resistant Plasmodium falciparum INDO assessed as parasite killing for 3 to 6 hrs by stage specific inhibition assay relative to control; assay type: functional; parameters: scale not given: the % may be the effect or the level left; conditions: time 3-6 hrs

| Structure (SMILES) | selectivity ratio [1] | IC50 (Plasmodium falciparum [2]) [nM] | Activity (Plasmodium falciparum [3]) [%] | Activity (Plasmodium falciparum [4]) | Activity (Plasmodium falciparum [5]) [%] | IC50 (HepG2) [nM] | IC50 (BEAS-2B [6]) [nM] | Activity (Plasmodium falciparum [7]) | Activity (Plasmodium berghei [8]) [%] | Activity (Plasmodium falciparum [9]) [%] | IC50 (A549 [10]) [nM] | Ratio IC50 (Plasmodium falciparum [11]) | IC50 (L02) [nM] | CC50 at 24 h [12] [nM] | selectivity ratio [13] | selectivity ratio [14] | Activity (Plasmodium falciparum [15]) [%] | Activity (Plasmodium falciparum [16]) [%] | Activity (Plasmodium falciparum [17]) [%] | IC50 (Plasmodium falciparum [19]) [nM] | further results |
| --- | --- | --- | --- | --- | --- | --- | --- | --- | --- | --- | --- | --- | --- | --- | --- | --- | --- | --- | --- | --- | --- |
| C=C(c1ccc(OC)c(F)c1)C1COC2(OO1)C1CC3CC(C1)CC2C3 (stereo unspecified) | 0.57 | 4.48 | 50 | inactive | 30 | 32100 | 61200 | Active | 100 | 38 | 48200 | 8.95 | 11900 | 15900 | 0.68 | 3970 | 100 | 6 | 100 | 40.1 | Activity (Plasmodium berghei [18]): 100%; Activity (Plasmodium falciparum [20]): Active |
| C=C(c1ccc(Cl)c(Cl)c1Cl)C1COC2(CCCC2)OO1 (stereo unspecified) | 0.13 | 20.6 |  |  |  | 8450 | 11500 |  |  |  | 690 |  | 1190 | 1440 | 16.7 | 72 |  |  |  |  | Activity (A549 [21]): 93.6%; Activity (BEAS-2B [22]): 8.6% |
| C=C(c1ccc(Cl)cc1Cl)C1COC2(CCCC2)OO1 (stereo unspecified) | 0.2 | 9.69 | 25 | inactive | 100 | 15700 | 17400 | Active | 0 | 66 | 1430 | 7.29 | 2550 | 12100 | 12.2 | 1350 | 100 | 20 | 10 | 70.7 | Activity (Plasmodium falciparum [23]): 100%; Activity (Plasmodium falciparum [24]): 100%; Activity (Plasmodium berghei [18]): 100%; Activity (Plasmodium falciparum [20]): Active; Activity (Plasmodium falciparum [25]): 60% |
| C=C(c1ccc(Cl)cc1Cl)C1COC2(CCCCC2)OO1 (stereo unspecified) | 0.097 | 18 |  |  |  | 17600 | 16700 |  |  |  | 810 | 6.09 | 3690 | 2470 | 20.6 | 145 |  |  |  | 109 | Activity (A549 [21]): 78%; Activity (BEAS-2B [22]): 4.5% |
